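Protocol summary: plate cells (96-well), add compound at 5 concentrations, incubate 48 h, interpolate endpoints linearly. GI50 = concentration required for 50% inhibition of growth. TGI: concentration producing complete growth inhibition.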
Key:
Assay in all cases: NCI-60 cell line screen, 48 h
A498 renal = test system: A498 renal
COLO 205 colon = test system: COLO 205 colon
HCT-15 colon = test system: HCT-15 colon
M14 melanoma = test system: M14 melanoma
NCI-H460 lung = test system: NCI-H460 lung
OVCAR-4 ovarian = test system: OVCAR-4 ovarian
SF-539 CNS = test system: SF-539 CNS
UACC-257 melanoma = test system: UACC-257 melanoma
UO-31 renal = test system: UO-31 renal
HOP-92 NSCLC = test system: HOP-92 NSCLC

Row | SMILES | TGI (A498 renal) [µM] | TGI (COLO 205 colon) [µM] | TGI (HCT-15 colon) [µM] | TGI (M14 melanoma) [µM] | TGI (NCI-H460 lung) [µM] | TGI (OVCAR-4 ovarian) [µM] | TGI (SF-539 CNS) [µM] | TGI (UACC-257 melanoma) [µM] | TGI (UO-31 renal) [µM] | TGI (HOP-92 NSCLC) [µM] | GI50 (A498 renal) [µM] | GI50 (COLO 205 colon) [µM] | GI50 (HCT-15 colon) [µM] | GI50 (HOP-92 NSCLC) [µM] | GI50 (M14 melanoma) [µM] | GI50 (NCI-H460 lung) [µM] | GI50 (OVCAR-4 ovarian) [µM] | GI50 (SF-539 CNS) [µM] | GI50 (UACC-257 melanoma) [µM] | GI50 (UO-31 renal) [µM]
1 | COc1ccc(/C=N/Nc2[nH]c(=S)nc3[nH]ncc23)cc1 | > 100 | 47.9 | > 100 | > 100 | > 100 | > 100 | > 100 | > 100 | > 100 |  |  |  |  |  |  |  |  |  |  | 
2 | COc1cc(N=Nc2cccc(S(=O)(=O)O)c2)c(C)cc1N=Nc1ccc(/C=C/c2ccc(N=[N+]([O-])c3ccc(/C=C/c4ccc(N=Nc5cc(C)c(N=Nc6cccc(S(=O)(=O)O)c6)cc5OC)cc4)c(S(=O)(=O)O)c3)cc2S(=O)(=O)O)cc1 | > 100 | > 100 | > 100 |  | > 100 | > 100 | > 100 | > 100 | > 100 | > 100 |  |  |  |  |  |  |  |  |  | 
3 | Cc1ncc([N+](=O)[O-])n1CCN=[N+]=[N-] | > 100 | > 100 | > 100 | > 100 | > 100 | > 100 | > 100 | > 100 | > 100 | > 100 |  |  |  |  |  |  |  |  |  | 
4 | COc1ccccc1C1C(C#N)=C(N)OC2=C1C(=O)CCC2 (stereo not drawn) | > 100 | > 100 | > 100 | > 100 | > 100 | > 100 | > 100 | > 100 | > 100 | > 100 | > 100 | > 100 | > 100 | 15.8 | > 100 | > 100 | > 100 | > 100 | > 100 | > 100
5 | COc1cc(C2C(Cl)C(=O)N2c2ccc(Br)cc2)cc(I)c1O (stereo not drawn) | > 100 | > 100 | > 100 | > 100 | > 100 | > 100 | > 100 | > 100 | > 100 |  |  |  |  |  |  |  |  |  |  | 
6 | O=S1(=O)NNC(=NCc2ccc(F)cc2)c2ccccc21 | > 100 | > 100 | > 100 | > 100 | > 31.6 | > 100 | > 100 | > 100 | > 100 | > 83.5 |  |  |  |  |  |  |  |  |  | 
7 | NC(N)=N/N=C(\c1ccc(Cl)cc1)C1CC1 | 32.3 | 31 | 40.2 | 30 | 29.9 | > 100 | 32.3 | 28 | 79.9 | 62.6 |  |  |  |  |  |  |  |  |  | 
8 | C=C1C(=O)O[C@H]2C1[C@H](OC(=O)/C(C)=C\COC(C)=O)C[C@]1(CO1)[C@@H]1[C@H](O)[C@H]3O[C@@]3(C)[C@@H]12 (stereo partly drawn) | 99 | 21.9 | > 56.1 |  | > 100 | > 77.3 | > 65.4 | 31.3 | > 100 | 30.8 |  |  |  |  |  |  |  |  |  | 
9 | COc1ccc(CNc2nc(NCc3ccc(OC)cc3)nc(NC3CCCCC3)n2)cc1 | > 100 | 5.35 | 9.52 |  | 7.78 | > 100 | > 100 | > 100 | 96.6 | > 100 |  |  |  |  |  |  |  |  |  | 
10 | COc1cc(S(=O)(=O)Nc2nc(-c3ccc(N4C(=O)/C(=C/c5ccccc5)N=C4c4ccccc4)cc3)cs2)ccc1Cl | > 100 | > 100 | > 100 | > 100 | > 100 | > 100 | > 100 | > 100 | > 100 | > 100 |  |  |  |  |  |  |  |  |  | 
11 | CCOC(=O)/C=C1\Nc2ccccc2C12CCc1c([nH]c3ccccc13)C2C(=O)OCC (stereo not drawn) | > 100 | 30.2 | > 100 | > 100 | > 100 | > 100 | > 100 | > 100 | > 100 |  |  |  |  |  |  |  |  |  |  | 
12 | COC(=O)C(C)N1C(=O)c2ccccc2I1OC(C)=O (stereo not drawn) |  | 35 | > 100 |  | > 100 | > 100 | > 100 | > 100 | > 100 | > 100 |  | 14.4 | 37.9 | > 100 |  | > 100 | 51.3 | 31.7 | > 100 | 54.2
13 | CCCCc1ccc2[n+](c1)C(C(=O)OCC)=PC2 (stereo not drawn) | > 100 | > 100 | > 100 | > 100 | > 100 | > 100 | > 100 | > 100 |  | > 100 |  |  |  |  |  |  |  |  |  | 
14 | CC(C)=CCN(N=O)c1ncnc2nc[nH]c12 | > 100 | > 100 |  | > 100 | > 100 | > 100 | > 100 | > 100 | > 100 | > 100 |  |  |  |  |  |  |  |  |  | 
15 | CCOC(=O)c1c2c(n(C)c1-c1ccccc1)C(=O)C(C)=CC2=O | 34.8 | 4.5 | 17.7 | 13.5 | 47.8 | 20.3 | 14.6 | 7.03 | 26.6 | 5.46 |  |  |  |  |  |  |  |  |  | 
16 | CC(C)(C)OC(=O)NC(Cc1ccccc1)C(=O)N[C@H]1c2ccsc2/C(=N/O)[C@H]1O (stereo partly drawn) | > 100 | > 100 | > 100 | > 100 | > 100 | > 100 | > 100 | > 100 | > 100 | > 100 |  |  |  |  |  |  |  |  |  | 
17 | O=C1c2ccccc2-c2ccc(NC(=O)C3CCCCC3C(=O)O)cc21 (stereo not drawn) | > 100 | > 100 | > 100 | > 100 | > 100 | > 100 | > 100 | > 100 | > 100 | > 100 |  |  |  |  |  |  |  |  |  | 
18 | O=CNc1cccc2c3c([nH]c12)CCCCCC3 | > 100 | > 100 | > 100 |  | > 100 | > 100 | > 100 | > 100 | > 100 | > 100 |  |  |  |  |  |  |  |  |  | 
19 | CCOC(=O)C1C(c2cc(OC)c(O)c(OC)c2)c2cc3c(cc2OC1(C)O)OCO3 (stereo not drawn) |  | > 100 | > 100 | > 100 | > 100 | > 100 | > 100 | > 100 | > 100 | 57 |  |  |  |  |  |  |  |  |  | 
20 | Cc1cc(NS(=O)(=O)c2ccc(Nc3c4ccccc4nc4c(C(=O)NCCN(C)C)ccc(Cl)c34)cc2)no1 |  | 14.9 | 19.5 | 17.6 | 11.4 | 17.6 | 14.6 |  | 7.84 |  |  |  |  |  |  |  |  |  |  | 

Reference: PubChem BioAssay (NCI)
